Measurements from ChEMBL document CHEMBL1201862, “PubChem BioAssay data set” (2004).
Calls of active or inactive are those of the source.

Key:
[1] = Mcl1-dependent cancer cell viability – HMC-1-8 cells, luminescence, dry powder, selectivity assay for A1 inhibitor project, dose response (AID 504415); format: functional, cell-based; settings: Homo sapiens
INS1 [2] = assay: beta-cell survival under cytokine stress – INS-1E, ATP luminescence, dry powder, dose response (AID 488844); format: functional, cell-based; settings: Rattus norvegicus
INS1 [3] = assay: suppression of NO production in INS-1E cells – cell-based, Griess absorbance, dry powder, set 2, dose response (AID 488868); format: functional; settings: Rattus norvegicus
INS1 [4] = assay: INS-1E mitochondrial potential rescue under cytokines – cell-based, JC-1 fluorescence ratio, dry powder, dose response (AID 488931); format: functional; settings: Rattus norvegicus
[5] = molecular target: Megakaryocyte-associated tyrosine-protein kinase (Homo sapiens, UniProt P42679); format: functional;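 note: affinity measured as one member of a kinase panel (Navigating the Kinome) against MATK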
[6] = molecular target: Ribosomal protein S6 kinase beta-1 (Homo sapiens, UniProt P23443); format: functional;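 note: measured as one member of a kinome-wide profiling panel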
[7] = molecular target: Serine/threonine-protein kinase pim-3 (Homo sapiens, UniProt Q86V86); format: functional;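 note: value obtained as one member of a broad kinase panel profiling effort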
[8] = molecular target: MAP kinase-activated protein kinase 3 (Homo sapiens, UniProt Q16644); format: functional;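 note: value comes from a kinome-wide profiling panel in which MAPKAPK3 is one of the panel members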
Aurora kinase B = Aurora kinase B (Homo sapiens, UniProt Q96GD4); format: functional
[9] = molecular target: Dual specificity tyrosine-phosphorylation-regulated kinase 1A (Homo sapiens, UniProt Q13627); format: functional;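 note: measured against DYRK1A as one member of a broad kinome profiling panel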

Ribosomal protein S6 kinase beta-1, sequence (P23443 whole entry): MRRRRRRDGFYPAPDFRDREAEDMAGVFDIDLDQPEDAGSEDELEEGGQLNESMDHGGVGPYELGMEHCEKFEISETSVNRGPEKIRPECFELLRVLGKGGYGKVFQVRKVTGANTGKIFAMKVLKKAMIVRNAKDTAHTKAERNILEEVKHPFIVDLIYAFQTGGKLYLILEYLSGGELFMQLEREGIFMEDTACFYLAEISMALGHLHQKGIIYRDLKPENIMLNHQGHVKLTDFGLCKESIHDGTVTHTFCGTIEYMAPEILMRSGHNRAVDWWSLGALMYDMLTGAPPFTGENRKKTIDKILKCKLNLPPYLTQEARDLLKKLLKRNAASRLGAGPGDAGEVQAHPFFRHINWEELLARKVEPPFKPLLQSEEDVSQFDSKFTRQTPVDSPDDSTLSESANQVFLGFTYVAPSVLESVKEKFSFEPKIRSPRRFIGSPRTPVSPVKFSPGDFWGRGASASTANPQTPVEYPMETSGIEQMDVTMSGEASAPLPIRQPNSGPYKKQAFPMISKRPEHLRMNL
Megakaryocyte-associated tyrosine-protein kinase, sequence (P42679 whole entry): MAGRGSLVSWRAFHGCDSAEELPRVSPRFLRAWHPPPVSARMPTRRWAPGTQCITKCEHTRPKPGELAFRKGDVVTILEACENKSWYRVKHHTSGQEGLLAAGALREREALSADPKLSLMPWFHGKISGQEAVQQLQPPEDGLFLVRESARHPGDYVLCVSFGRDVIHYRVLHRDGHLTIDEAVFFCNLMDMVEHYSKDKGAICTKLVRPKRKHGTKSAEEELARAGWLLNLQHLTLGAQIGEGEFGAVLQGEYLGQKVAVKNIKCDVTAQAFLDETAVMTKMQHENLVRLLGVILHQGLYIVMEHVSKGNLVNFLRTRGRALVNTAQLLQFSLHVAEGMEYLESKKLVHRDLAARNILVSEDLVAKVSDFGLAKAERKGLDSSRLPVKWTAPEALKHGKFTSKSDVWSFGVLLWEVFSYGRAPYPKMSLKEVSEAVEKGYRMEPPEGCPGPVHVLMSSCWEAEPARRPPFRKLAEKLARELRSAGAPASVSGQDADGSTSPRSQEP
MAP kinase-activated protein kinase 3, sequence (Q16644 whole entry): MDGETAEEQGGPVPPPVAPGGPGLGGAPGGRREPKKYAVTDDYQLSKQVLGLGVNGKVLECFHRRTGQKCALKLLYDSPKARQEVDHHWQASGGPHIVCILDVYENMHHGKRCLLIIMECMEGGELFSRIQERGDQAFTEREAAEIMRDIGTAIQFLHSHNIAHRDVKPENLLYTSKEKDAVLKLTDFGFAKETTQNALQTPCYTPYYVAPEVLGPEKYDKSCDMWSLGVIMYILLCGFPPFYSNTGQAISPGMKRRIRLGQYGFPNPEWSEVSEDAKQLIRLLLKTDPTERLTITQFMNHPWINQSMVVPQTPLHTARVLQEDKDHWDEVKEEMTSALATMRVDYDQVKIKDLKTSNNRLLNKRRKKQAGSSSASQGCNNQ
Aurora kinase B, sequence (Q96GD4 whole entry): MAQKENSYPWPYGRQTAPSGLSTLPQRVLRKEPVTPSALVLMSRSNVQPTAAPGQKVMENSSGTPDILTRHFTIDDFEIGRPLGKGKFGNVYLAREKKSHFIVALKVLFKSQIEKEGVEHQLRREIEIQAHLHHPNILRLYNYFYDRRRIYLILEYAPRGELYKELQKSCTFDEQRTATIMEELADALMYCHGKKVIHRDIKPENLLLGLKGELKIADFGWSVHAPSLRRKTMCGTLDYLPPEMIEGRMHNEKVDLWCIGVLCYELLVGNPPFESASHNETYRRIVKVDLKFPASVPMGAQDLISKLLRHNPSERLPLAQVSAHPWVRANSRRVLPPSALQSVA

CCSc1c([N+](=O)[O-])c(=O)oc2ccccc12
active: AC50 [1] 23.4 µM

C[C@@H]1CN([C@@H](C)CO)C(=O)c2cccc(NC(=O)Nc3ccc(F)cc3)c2O[C@H]1CN(C)S(=O)(=O)c1ccc(Cl)cc1
active: AC50 (INS1 [2]) 7.24 µM | AC50 (INS1 [3]) 27.4 µM | AC50 (INS1 [4]) 95.8 µM

Cc1c(F)c(N2CCC(N)C2)nc2[nH]cc(C(=O)O)c(=O)c12 (stereo not given)
active: Ki [5] 2 µM | Ki [6] 2 µM | Ki [7] 5.01 µM | Ki [8] 7.94 µM | Ki (Aurora kinase B) 6.31 µM | Ki [9] 3.16 µM
